# Patent publication US20160115540A1, “PRODRUGS AND DRUGS” (Biogen MA Inc., priority 2013, published 2016)
# Where a name gives a salt, the structure may show the parent alone.
# Test system: brain
# Assay: Transcriptional profiling, chronic dosing, EAE mice: brain
# Assay type: in vivo
# Excerpt: EAE induction is generally performed by immunization with brain extracts, CNS proteins (such as myelin basic protein), or peptides from such protein emulsified in an adjuvant such as complete Freund's adjuvant, e.g., as described in Linker et al., Brain. 2011 March 134(Pt3): 678-92. […] FIG. 17 depicts exemplary immunophenotyping panels used to analyze various immune cell populations (e.g., T cells, T regulatory cells, NK cells, B cells, myeloid cells). […] The number of independent mice whose tissues were harvested for transcript profiling studies and whose data passed QC is shown in TABLE 15. Animals were exposed to CO2 and whole blood collected via cardiac puncture. Two 100 μl aliquots of whole blood were collected in 1.5 mL microcentrifuge tubes and snap frozen in liquid nitrogen. Peripheral (liver, spleen, kidney and jejunum) and CNS brain (cerebellum, hippocampus, striatum and cortex) tissues were harvested and snap frozen in liquid nitrogen, with special care taken to collect tissues of similar size and from the same location. All samples were stored at -80° C. until RNA extraction was conducted. For RNA preparation, frozen tissues were placed in 2 mL RNAse-free 96-well blocks with 1.5 mL QIAzol Lysis Reagent (QIAgen) and a 3.2 mm stainless steel bead (BioSpec Products, Bartlesville, Okla.). Tissues were disrupted for four cycles of 45 seconds in a Mini-Beadbeater (Biospec Products). RNA was extracted in chloroform and the aqueous phase was mixed with an equal volume of 70% ethanol. Extracted RNA was applied to RNeasy 96 plates and purified by the spin method according to the manufacturer's protocol (RNeasy 96 Universal Tissue Protocol, QIAgen, Hilden Germany). […] Washing and staining of the hybridized arrays were completed as described in the GeneChip Expression analysis technical manual for HT plate arrays using the Genechip® Array Station (Affymetrix, Santa Clara, Calif.) with modifications as described in […] et al. The processed GeneChip® plate arrays were scanned using GeneTitan scanner (Affymetrix, Santa Clara, Calif.). Affymetrix scans were subject to quality control (QC) measures. These tests included a visual inspection of the distribution of raw signal intensities and an assessment of RNA degradation, relative log expression (RLE), and normalized unscaled standard error (NUSE). All sample scans that passed these QC metrics were included in the analysis. All CEL files were subjected to GC-content-based Robust Multi-array Average (GCRMA) normalization (version 2.20.0) (Irizarry R A, et al. Nucleic Acids Res 2003; 31:e15; Li C, et al. Genome Biol 2001; 2:[…]0032). […] Stat Appl Genet Mol Biol 2004; 3:Article3). […] Springer Science+Business Media 2005). Changes in gene expression were studied by applying a linear modeling approach to fit gene expression levels according to the defined groups of samples (e.g. DMF-, MMF-, and Vehicle-treated animals) and Bayesian posterior error analysis as implemented by Smyth (Smyth G K. Stat Appl Genet Mol Biol 2004; 3:Article3). The comparisons considered included: DMF-vs-MMF, DMF-vs-Vehicle, MMF-vs-Vehicle, and Vehicle-vs-Naïve.
Structure (SMILES),"Number of differentially expressed genes identified: Brain (100 mpk DMF-vs-90 mpk MMF, 7 h after last dosing)","Number of differentially expressed genes identified: Brain (100 mpk DMF-vs-90 mpk MMF, 12 h after last dosing)","Number of differentially expressed genes identified: Brain (100 mpk DMF-vs-Vehicle, 7 h after last dosing)","Number of differentially expressed genes identified: Brain (100 mpk DMF-vs-Vehicle, 12 h after last dosing)","Number of differentially expressed genes identified: Brain (90 mpk MMF-vs-Vehicle, 7 h after last dosing)","Number of differentially expressed genes identified: Brain (90 mpk MMF-vs-Vehicle, 12 h after last dosing)"
"COC(=O)/C=C/C(=O)OC [DMF, dimethyl fumarate]",31,0,6,0,–,–
"COC(=O)/C=C/C(=O)O [MMF, monomethyl fumarate]",–,–,–,–,158,0
